ChEMBL document CHEMBL1127805 (J Med Chem, 1994)
pEC50, pIC50, pKi: −log10 of the molar value. Each block holds one molecule with its values, some of them ahead of it.

What was measured:
Glutamate NMDA receptor [1] = experiment: In vitro inhibition of [3H]glycine at NMDA receptor; format: protein-complex assay
[2] = target: T1, Glutamate receptor ionotropic, NMDA 1 (Rattus norvegicus, UniProt P35439); experiment: Compound was evaluated for in vitro inhibition of spinal cord at NMDA receptor.
Mus musculus [3] = experiment: In vivo antagonist activity against seizures elicited by audiogenic administered intra peritoneally in mice; format: functional
[4] = target: T1, Glutamate receptor ionotropic, NMDA 1; experiment: Compound was evaluated for in vitro inhibition of cortical slice at NMDA receptor
Mus musculus [5] = experiment: Antagonist activity in electroshock in vivo through intravenous route; format: functional
Mus musculus [6] = experiment: Compound was evaluated for audiogenic seizure in vivo through intra peritoneal route; format: functional
Rattus norvegicus [7] = experiment: Compound was evaluated for neuroprotection, rat MCAO in vivo through iv route; format: functional
[8] = target: Glutamate [NMDA] receptor; experiment: Compound was evaluated for in vitro inhibition of myenteric plexus, guinea pig at NMDA receptor; format: protein-complex assay, Cavia porcellus
Mus musculus [9] = experiment: In vivo antagonist activity against seizures elicited by audiogenic administered icv in mice; format: functional
[10] = target: T1, Glutamate receptor ionotropic, NMDA 1; experiment: Compound was evaluated for in vitro inhibition of cortical neuron at NMDA receptor
Gerbillinae = experiment: Compound was evaluated for neuroprotection, in gerbil seizure model in vivo through intraperitoneal route; format: functional
Glutamate NMDA receptor [11] = experiment: Compound was evaluated for in vitro inhibition of [3H]MK-801 at NMDA receptor; format: protein-complex assay
Rattus norvegicus [12] = experiment: Compound was evaluated for D-Ser-induced cGMP in vivo through ip route; format: functional
[13] = Compound was evaluated for harmaline-induced cGMP seizure in vivo through ip route; format: functional
Mus musculus [14] = experiment: In vivo antagonist activity against seizures elicited by NMDLA in mice administered intravenously; format: functional; details: iv
Mus musculus [15] = experiment: Antagonist activity in electroshock model in vivo through intravenous route; format: functional
Mus musculus [16] = experiment: Antagonist activity in PTZ seizure model in vivo through intravenous route; format: functional
Mus musculus [17] = experiment: In vivo antagonist activity against seizures elicited by NMDA in mice administered perorally; format: functional; details: po
Rattus norvegicus [18] = experiment: Antagonist activity for neuroprotection, in rat MCAO in vivo through intravenous bolus+infusion route
[19] = target: T1, Glutamate receptor ionotropic, NMDA 1; experiment: Compound was evaluated for in vitro inhibition of cGMP cerebellar slice at NMDA receptor.
Mus musculus [20] = experiment: In vivo antagonist activity against seizures elicited by audiogenic, administered perorally in mice; format: functional; details: po
Mus musculus [21] = experiment: In vivo antagonist activity against seizures elicited by audiogenic, administered intra peritoneally in mice; format: functional

pIC50 (Glutamate NMDA receptor [1]): 7.96 | pIC50 [2]: 5.68
SMILES: Oc1ccc(-c2c(O)nc3cc(Cl)cc(Cl)c3c2O)cc1

pIC50 (Glutamate NMDA receptor [1]): 6.40 | pIC50 [8]: 5.30
SMILES: O=C(O)c1cc(S)c2ccc(Cl)cc2n1
ED50 (Rattus norvegicus [7]): 20 mg/kg

pIC50 (Glutamate NMDA receptor [1]): 7.00
SMILES: O=c1[nH][nH]c(=O)c2c(O)c3c(Cl)cc(Cl)cc3nc12
MED50 (Gerbillinae): 10 mg/kg

pIC50 (Glutamate NMDA receptor [1]): 6.96
SMILES: CN(C(=O)c1ccccc1)c1c(C(=O)O)[nH]c2cc(Cl)ccc12

pIC50 (Glutamate NMDA receptor [1]): 6.02
SMILES: O=C(O)Cc1c(C(=O)O)[nH]c2cc(Cl)ccc12
ED50 (Rattus norvegicus [12]): 5.4 µg | ED50 (Rattus norvegicus [12]; Rattus norvegicus, ip, read-out: ED50): > 50 mg/kg

pEC50 [4]: 3.85
SMILES: O=C(O)CSc1c(C(=O)O)[nH]c2cc(Cl)cc(Cl)c12

pIC50 [19]: 5.57
SMILES: O=C(O)CCc1c(C(=O)O)[nH]c2cc(Cl)cc(Cl)c12
ED50 (Mus musculus [3]): 100 mg/kg | ED50 (Mus musculus [9]): 0.09 µg

SMILES: O=c1[nH]c2cc(Cl)ccc2c(O)c1-c1cccc(Oc2ccccc2)c1
ED50 (Mus musculus [20]): 0.9 mg/kg | ED50 (Mus musculus [21]): 0.9 mg/kg

More lines, now with the values behind:

SMILES: O=C(c1c(O)nc2cc(Cl)ccc2c1O)C1CC1
ED50 (Mus musculus [3]): 4.1 mg/kg

SMILES: O=C(NS(=O)(=O)c1ccccc1)c1nc2cc(Cl)c(Cl)cc2[nH]c1=O
pIC50 (Glutamate NMDA receptor [1]): 6.92 | pIC50 [4]: 4.96 | ED50 (Mus musculus [5]): > 100 mg/kg

SMILES: CC(CN(C)C)OC(=O)c1cc(O)c2c(Cl)cc(Cl)cc2n1 (stereo unspecified)
ED50 (Mus musculus [6]): 62 mg/kg

SMILES: O=C(O)c1nc2c(Cl)cc(Cl)cc2[nH]1
pIC50 (Glutamate NMDA receptor [1]): 6.10

SMILES: NCc1ccc(NC(=O)CCc2c(C(=O)O)[nH]c3cc(Cl)cc(Cl)c23)cc1
pIC50 (Glutamate NMDA receptor [1]): 7.57

SMILES: NC(Cc1ccc(CC(=O)N[C@H]2C[C@H](C(=O)O)Nc3cc(Cl)cc(Cl)c32)cc1)C(=O)O (stereo partly specified)
ED50 (Mus musculus [3]): 29 mg/kg | ED50 (Mus musculus [9]): 0.5

SMILES: N[C@H]1C(=O)N(O)C[C@H]1O
pIC50 (Glutamate NMDA receptor [1]): 5.89 | pKi [10]: 6.12

SMILES: NCc1ccc(CC(=O)N[C@H]2C[C@H](C(=O)O)Nc3cc(Cl)cc(Cl)c32)cc1
ED50 (Mus musculus [3]): 39 mg/kg | ED50 (Mus musculus [9]): 3.5

SMILES: COC(=O)[C@H]1C[C@H](NC(=O)Cc2ccc(CN)cc2)c2c(Cl)cc(Cl)cc2N1
ED50 (Mus musculus [3]): 32 mg/kg

SMILES: N[C@H](/C=C/CCO)C(=O)O
pIC50 (Glutamate NMDA receptor [1]): 6.62 | pEC50 (Glutamate NMDA receptor [11]): 6.48

SMILES: CCOC(=O)Cc1c(C(=O)O)[nH]c2cc(Cl)ccc12
MED50 [13]: 100 mg/kg | pIC50 (Glutamate NMDA receptor [1]): 6.20

SMILES: C[C@@H]1CN(O)C(=O)[C@@H]1N
pIC50 (Glutamate NMDA receptor [1]): 5.85 | ED50 (Mus musculus [14]): 20 mg/kg | ED50 (Mus musculus [3]): 5.1 mg/kg | ED50 (Mus musculus [15]): 26 mg/kg | ED50 (Mus musculus [16]): 13 mg/kg | ED50 (Mus musculus [17]): 44 mg/kg | ED50 (Rattus norvegicus [18]): 13.5 mg/kg | pKi [10]: 6.19

SMILES: O=C(Nc1ccccc1)N[C@H]1C[C@H](C(=O)O)Nc2cc(Cl)cc(Cl)c21
pIC50 (Glutamate NMDA receptor [1]): 8.11 | ED50 (Mus musculus [3]): > 100 mg/kg
